Patent US20170049717A1, “DRUG FOR TREATMENT OF TINNITUS PATIENTS” (KYORIN PHARMACEUTICAL CO., LTD., priority 2014, published 2017)

Legend:
[1] = test system: patients with tinnitus associated with sudden hearing loss; test: 24-week, placebo controlled, randomized, double-blind comparative trial; TRSw score; format: in vivo, human; conditions: for Change in TRSw score, Neramexane: least mean squares (MMRM)
Method: Film coated tablets comprising 12.5 mg neramexane mesylate were produced by the method disclosed in International Patent Publication No. WO2009/033649.
The efficacy of neramexane mesylate on patients with tinnitus associated with sudden hearing loss was evaluated in a 24-week, placebo controlled, randomized, double-blind comparative trial.
The film coated tablets comprising 12.5 mg neramexane mesylate or placebo tablets were administered for 24 weeks to patients having tinnitus. The dosage was started from 12.5 mg/day, and gradually increasing the dose to 50 mg/day over 4 weeks, and maintaining the same dose thereafter.
The therapeutic effect of neramexane mesylate for the patients was evaluated using the TRSw score. Also, the state of anxiety or depression of the patients was evaluated using the HADS score. Statistical analysis was performed using a mixed-effect model repeated measure (MMRM) taking into consideration the covariance structure of error for the patient, with the change in TRSw score from before administration of neramexane mesylate tablets or placebo tablets (0 weeks) to each evaluation time point as the response variable, and with the drug-administered group, evaluation time point, interaction between drug-administered group and evaluation time point, 0-week TRSw score, gender and body weight as […]. The numerical values in the table represent least mean squares for the change in TRSw score at 16 weeks after administration and 24 weeks after administration. A change in score of less than 0 indicates a higher therapeutic effect.

[2] = molecular target: α9/α10 nicotinic acetylcholine receptors (Rattus norvegicus, UniProt P43144+Q9JLB5); conditions: Plazas, et al., Eur J Pharmacol., 2007; cited from earlier work
5-HT3 receptors = molecular target: T1, 5-HT3 receptors (Homo sapiens, UniProt P46098); conditions: cited from earlier work
T1 sequence (P46098 24-478): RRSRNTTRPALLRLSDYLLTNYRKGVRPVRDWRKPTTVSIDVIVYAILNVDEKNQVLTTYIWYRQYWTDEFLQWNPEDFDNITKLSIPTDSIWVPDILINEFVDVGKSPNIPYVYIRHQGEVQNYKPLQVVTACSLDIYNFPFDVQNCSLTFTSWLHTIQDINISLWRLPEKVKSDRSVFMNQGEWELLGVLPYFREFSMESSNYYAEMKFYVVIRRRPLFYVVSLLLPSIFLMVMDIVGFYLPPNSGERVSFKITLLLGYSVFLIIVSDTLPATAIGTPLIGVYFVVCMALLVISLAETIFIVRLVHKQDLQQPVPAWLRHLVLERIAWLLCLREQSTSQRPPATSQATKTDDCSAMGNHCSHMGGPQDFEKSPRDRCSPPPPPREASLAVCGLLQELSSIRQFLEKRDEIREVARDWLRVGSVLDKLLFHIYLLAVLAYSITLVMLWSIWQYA

[3] = sudden hearing loss, together with HADS (anxiety) of >10
[4] = sudden hearing loss, together with HADS (depression) of >10
[5] = sudden hearing loss, together with morbidity period of 48 months or longer
[6] = sudden hearing loss, together with suffering period of less than 6 months

Chain of α9/α10 nicotinic acetylcholine receptors (P43144 26-479): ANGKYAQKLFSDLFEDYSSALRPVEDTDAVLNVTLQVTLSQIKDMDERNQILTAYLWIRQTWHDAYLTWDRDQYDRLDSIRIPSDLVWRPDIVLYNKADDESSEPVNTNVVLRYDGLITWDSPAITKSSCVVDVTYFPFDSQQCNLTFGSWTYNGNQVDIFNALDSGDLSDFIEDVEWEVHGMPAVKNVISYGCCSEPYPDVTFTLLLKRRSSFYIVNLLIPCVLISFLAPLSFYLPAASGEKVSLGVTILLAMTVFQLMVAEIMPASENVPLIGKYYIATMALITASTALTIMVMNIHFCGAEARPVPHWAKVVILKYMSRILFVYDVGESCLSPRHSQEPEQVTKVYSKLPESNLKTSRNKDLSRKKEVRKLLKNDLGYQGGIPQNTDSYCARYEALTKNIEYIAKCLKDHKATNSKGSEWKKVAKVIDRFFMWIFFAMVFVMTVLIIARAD
Chain of α9/α10 nicotinic acetylcholine receptors (Q9JLB5 25-447): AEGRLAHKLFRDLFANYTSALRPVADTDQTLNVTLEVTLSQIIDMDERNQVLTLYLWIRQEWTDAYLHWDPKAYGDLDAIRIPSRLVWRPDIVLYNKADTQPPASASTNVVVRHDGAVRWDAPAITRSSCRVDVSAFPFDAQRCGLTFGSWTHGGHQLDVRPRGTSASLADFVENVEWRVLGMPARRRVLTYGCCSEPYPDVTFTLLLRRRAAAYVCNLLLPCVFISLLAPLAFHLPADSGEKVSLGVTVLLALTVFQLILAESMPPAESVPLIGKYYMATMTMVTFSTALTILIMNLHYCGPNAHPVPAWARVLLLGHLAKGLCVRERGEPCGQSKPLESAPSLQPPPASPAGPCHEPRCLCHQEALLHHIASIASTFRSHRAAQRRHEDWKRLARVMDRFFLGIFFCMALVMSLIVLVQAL

Structure (SMILES): CC1(C)CC(C)(C)CC(C)(N)C1 [Neramexane, 1-amino-1,3,3,5,5-pentamethylcyclohexane]
- Change in TRSw score, Neramexane − placebo ([1]; Tinnitus associated with sudden hearing loss): −1.8
- therapeutic effect ([1]; group with a depression value of greater than 10 according to HADS): unexpectedly excellent therapeutic effect
- therapeutic effect ([1]; group with a morbidity period of 48 months or longer): unexpectedly excellent therapeutic effect
- therapeutic effect ([1]; group with a suffering period of shorter than 6 months): unexpectedly excellent therapeutic effect
- therapeutic effect ([1]; group with an anxiety value of greater than 10 according to HADS): unexpectedly excellent therapeutic effect
- Change in TRSw score, Neramexane ([1]; change from 0 weeks, up to 50 mg/day, Tinnitus associated with sudden hearing loss): −2.3
- Change in TRSw score, Neramexane [1, 3]: −2.4
- Change in TRSw score, Neramexane [1, 4]: −3.1
- Change in TRSw score, Neramexane [1, 5]: −4.0
- Change in TRSw score, Neramexane [1, 6]: −3.7
- therapeutic effect compared to placebo ([1]; patients affected by tinnitus associated with sudden hearing loss): clear therapeutic effect
- Change in TRSw score, Neramexane − placebo [1, 3]: −3.7
- Change in TRSw score, Neramexane − placebo [1, 4]: −3.7
- Change in TRSw score, Neramexane − placebo [1, 5]: −4.2
- Change in TRSw score, Neramexane − placebo [1, 6]: −3.8
- inhibiting activity on α9/α10 nicotinic acetylcholine receptors [2]: exhibits inhibiting activity
- inhibiting activity on 5-HT3 receptors (5-HT3 receptors): exhibits inhibiting activity
